Assays:
[1] = tested on: hES cells; assay: hES cells cultured in AI medium with inhibitors of FGF receptors, MEK/ERK or Activin/Nodal (TGFβ) signaling; format: cell-based, human; settings: for morphology / survival of hES cells in AI medium with inhibitor: 100 nM PD173074, 1 μM PD0325901 or 10 μM SB-431542, vs DMSO control; for morphology / survival of hES cells in AI medium with inhibitor / expression of pluripotency proteins OCT4 and NANOG (immunofluorescence): 72 hours; for expression of pluripotency proteins OCT4 and NANOG (immunofluorescence): 100 nM PD173074 or 1 μM PD0325901
Method: For culture in AI media, cells were maintained on plates coated with 0.5 μg/cm^2 Laminin-511 (Biolamina, Takara), and generally passaged with ReLeSR, similar to cells in mTeSR™1 on Laminin. Early passage newly-derived hES cells in AI medium were passaged by manual picking. Cells in AI media were also split using various dissociation reagents, as indicated in the Examples. For Accutase or AccuMax (StemCell Technologies), the dissociation reagent was added to wells for 5-10 minutes, the well contents were collected and pelleted, and the dissociation reagent removed. Cells were then resuspended in AI media with or without […] ROCK inhibitor for plating. For Gentle Cell Dissociation Reagent (StemCell Technologies), the reagent was added to wells for 6 minutes, then aspirated and AI medium added. Well contents were collected and disaggregated with a 5 ml stripette. For 0.5 mM EDTA (Sigma), the reagent was added for 5 minutes, then aspirated, and AI medium added and cells disaggregated. For salt-free PBS (Gibco, Life Technologies), the reagent was added for 6 minutes, aspirated, then AI medium added and cells disaggregated.
For inhibitor treatment experiments, cell culture media was supplemented with 100 nM PD173074 (FGF receptor inhibitor), 1 μM PD0325901 (MEK inhibitor) or 10 μM SB-431542 (Activin/Nodal receptor inhibitor) as indicated in the Examples. Cells were exposed to inhibitors for 72 hours.
On the day of fixation, medium was removed from pluripotent cell lines or differentiated cells and the cells were washed with Dulbeco's Phosphate-Buffer saline (PBS) without calcium and magnesium (Thermo Fisher Scientific). Cells were fixed with 4% (w/v) paraformaldehyde (PFA) (ThermoFisher Scientific) for 1 h and permeabilised with 0.5% (w/v) Triton X-100 or 0.5% (v/v) Tween-20 (Sigma Aldrich). Non-specific binding was minimised using 2-10% (v/v) donkey serum (AbCam) in PBS (containing 0.05% (v/v) Tween-20 or 0.01% Tween-20). The following primary antibodies were used (all at 1:500 dilution unless otherwise indicated): anti-NANOG (AF1997 R&D Systems; REC-RCAB0001P, 2B Scientific; 4903P, Cell Signaling Technologies or ab21624, Abcam), anti-SOX17 (AF1924, R&D Systems), anti-TRA-1-81 (MAB4381, Millipore; or 560072, BD Biosciences), anti-TUJ1 (T2200, Sigma), anti-FOXA2 (3143, Cell Signaling), anti-OCT4 (sc-5279, Santa Cruz or 2750S, Cell Signaling Technologies), anti-SSEA4 (MA1-021, Life Technologies or MC-813-70, DSHB, 1:100), anti-TRA-1-60 (MAB4360, Millipore, 1:100), anti-CXCR4 (MAB173, R&D), anti-Desmin (RB-9014-R7, Neomarkers, 1:50), anti-AFP (A0008, Dako), anti-cytokeratin-18 (ab668, Abcam). Primary antibody was removed by washing with PBS (containing 0.05% or 0.01% v/v Tween-20). Secondary antibodies (Alexa Fluor® 488, Alexa Fluor® 594, Alexa Fluor® 555 donkey anti-rabbit, mouse or goat, Molecular Probes) were diluted in blocking solution at a 1:300 concentration and added to the corresponding wells for 1 hour at room temperature. Cells were the washed several times in of 0.1% (v/v) Tween-20 and placed in a last wash for 30 minutes. A drop of Vectashield containing DAPI (Vector Labs) was added to each well prior to imaging.

[2] = tested on: human embryos; assay: Human embryo culture with growth factor treatment, immunofluorescence and automated quantification; format: cell-based
Method: Human embryos were donated to the research project by informed consent under the UK Human Fertilisation and […] Licence number R0162. Vitrified embryos frozen in straws were thawed by quickly transferring the contents of the straw from liquid nitrogen directly into thaw solution (Irvine Scientific Vitrification Thaw Kit) and thawed as per manufacturer's instructions. Embryos frozen in cryopets were first thawed for 3 seconds in a 37° C. waterbath before transferring into thaw solution (Irvine Scientific Vitrification Thaw Kit). Embryos frozen in glass ampoules were thawed completely in a 37° C. waterbath after the top of the vial was removed under liquid nitrogen. The contents were emptied onto a petri dish and the embryo transferred through a gradient of sucrose solutions (Quinn's Advantage Thaw Kit, Origio) as per manufacturer's instructions.
Embryos were routinely cultured in Global Media (LifeGlobal) supplemented with 5 mg/mL LifeGlobal Protein Supplement pre-equilibrated in an incubator at 37° C. and 5% CO2. For growth factor or inhibitor treatment, these conditions were further supplemented with FGF2 (3718-FB-01M, R&D) or IGF1 (291-G1-10, R&D) as indicated.
Embryos were fixed with 4% (w/v) paraformaldehyde (PFA) (ThermoFisher Scientific) for 1 h at 4° C. on a rotating shaker and analysed as described previously (Niakan and Eggan, Developmental Biology, 2013: doi: 10.1016/j.ydbio.2012.12.008). Briefly, embryos were then transferred through several washes of 0.1% (v/v) Tween-20 (Sigma Aldrich) diluted in Dulbeco's Phosphate-Buffer saline (PBS) without calcium and magnesium (Thermo Fisher Scientific) to remove residual paraformaldehyde. Embryos were placed for 20 minutes in 0.5% (v/v) Tween-20 for permeabilization. Embryos were blocked for 1 hour at room temperature in blocking solution (10% donkey serum diluted in 0.1% (v/v) Tween-20). Embryos were placed in primary antibodies at a concentration of 1:500 in blocking solution overnight at 4° C. on a rotating shaker. The following primary antibodies were used (all at 1:500 dilution): anti-NANOG (AF1997 R&D Systems, REC-RCAB0001P 2B Scientific, or ab21624, Abcam), anti-GATA6 (SC-9055, Santa Cruz) and anti-SOX17 (AF1924, R & D Systems). The following day, embryos were transferred through 4 washes of 0.1% (v/v) Tween-20 then placed in a last wash for 30 minutes. Secondary antibodies (Cy3, FITC or Cy5 donkey anti-rabbit, mouse or goat, Molecular Probes) were diluted in blocking solution at a 1:300 concentration. Embryos were placed in secondary antibody for 1 hour at room temperature on a rotating shaker, transferred through 4 washes of 0.1% (v/v) Tween-20 and placed in a last wash for 30 minutes. Embryos were placed in a 50 μL 1:3 dilution of Vectashield containing DAPI (Vector Labs): 0.1% (v/v) Tween-20 on a coverslip bottom dish (MatTek) for confocal imaging.
Embryos were imaged on a Leica SP5 inverted confocal microscope (Leica Microsystems GmbH) at a z-section thickness of 3 μm or 2 μm for human or mouse embryos respectively. MINS 1.3 software was used to detect and segment nuclei and thus determine the number of cells in each embryo (http://katlab-tools.org/) (Lou et al., Stem Cell Reports 2014, doi: 10.1016/j.stemcr.2014.01.010). Confocal stacks in .tif format were loaded into the MINS pipeline for automated nuclear segmentation.
The MINS segmentation output was manually checked for appropriate segmentation and mitotic nuclei were removed from the analysis. Data were subsequently plotted using GraphPad Prism version 6 (GraphPad Software, La Jolla, Calif.).

[3] = tested on: H9 cells; assay: Test of laminin variants as basement membrane substrate for H9 cells in mTeSR1; format: cell-based, human; settings: 0.5 μg/cm^2 coating, mTeSR1 media, 3 days, vs Matrigel
Source text: We therefore interrogated the transcriptome data set to identify chemically defined and physiologically relevant substrates for the derivation of hES and iPS cells. We also interrogated the transcriptome data set and identified expression of transcripts for laminin-binding Integrin α6 and Integrin-β1 (ITGA6, ITGB1) in the human blastocyst, as shown in FIG. 3A. […] Consequently, recombinant human Laminin-511 (Biolamina) or a recombinant Laminin-511 E8 fragment (iMatrix-511, Takara) were selected as basement membrane substrates to culture hES cells, in order to recapitulate the niche within the blastocyst. To test the laminin variants, H9 cells in mTeSR™1 media were passaged onto plates coated with 0.5 μg/cm^2 of either iMatrix-511 (Takara) or LN-511 (Biolamina), as well as a control Matrigel plate, and cultured for 3 days.
For culture in mTeSR™1 media (StemCell Technologies), cells were generally maintained on Matrigel-coated (BD Biosciences) tissue culture plates. Matrigel coating was performed for one hour at room temperature (RT) as per the manufacturer's instructions Cells were passaged as clumps using ReLeSR (Stemcell Technologies). ReLeSR was added to wells for 30 seconds at RT then aspirated, then plates were incubated for 5 minutes at 37° C., quenched with mTeSR™1 and lightly tapped to dislodge clumps of the desired size. […]

## NC(=O)c1ccc(-c2nc(-c3ccc4c(c3)OCO4)c(-c3ccccn3)[nH]2)cc1 [TGFβ inhibitor, SB-431542]
[1]
  morphology / survival of hES cells in AI medium with inhibitor: underwent apoptosis
[1]; 10 μM SB-431542, 3 days
  NANOG expression in remaining colonies (immunofluorescence): undetectable in the majority of cells

## CCN(CC)CCCCNc1ncc2cc(-c3cc(OC)cc(OC)c3)c(NC(=O)NC(C)(C)C)nc2n1 [FGF receptor inhibitor, PD173074]
[1]
  morphology / survival of hES cells in AI medium with inhibitor: retained the morphology of pluripotent cells
  expression of pluripotency proteins OCT4 and NANOG (immunofluorescence): retained the expression

## IGF1
[2]; 17 nM IGF1 from E2.5, analysed at E6-7, p-value<0.05
  increase in the proportion of NANOG expressing cells compared to control embryos: 2 fold
[2]; human embryos treated with IGF1
  KLF17 (epiblast marker) expression: expressed in a higher proportion of cells

## Laminin-511: recombinant human Laminin-511 (Biolamina)
[3]
  pluripotency morphology of H9 cells on substrate: equivalent to Matrigel coating

## O=C(NOC[C@H](O)CO)c1ccc(F)c(F)c1Nc1ccc(I)cc1F [MEK/ERK inhibitor, PD0325901]
[1]
  morphology / survival of hES cells in AI medium with inhibitor: retained the morphology of pluripotent cells
  expression of pluripotency proteins OCT4 and NANOG (immunofluorescence): retained the expression

## FGF2
[2]; 100 ng/ml FGF2 from E2.5
  GATA6 (extraembryonic marker) expression: still expressed
[2]; 100 ng/ml FGF2 from E2.5, analysed at E6-7
  NANOG expression compared to untreated controls (immunofluorescence): loss of NANOG expression
[2]; 100 ng/ml FGF2 from E5 to E6-7
  NANOG expression: remained expressed
  SOX17 (extraembryonic marker) expression: remained expressed
[2]; 1 μg/ml FGF2 from E2.5
  GATA6 (extraembryonic marker) expression: still expressed
[2]; 1 μg/ml FGF2 from E2.5, analysed at E6-7
  NANOG expression compared to untreated controls (immunofluorescence): loss of NANOG expression
